IC50 data for 13 compounds are collected here from patent US11446298B2, “Pyrimidine derivatives” (Idorsia Pharmaceuticals Ltd, priority 2017, dated 2022).

The target in one test is T1, EP2 (Homo sapiens, UniProt P43116).
T1 construct: SF295 glioblastoma cells express high endogenous EP2 and no EP4; host or cells: SF295 glioblastoma cells
The test can be described thus: hEP2 cAMP Assay (SF295 glioblastoma cells, HTRF cAMP, PGE2 75 nM). Format: cell-based. To be noted: antagonistic activity, PGE2 75 nM (EC80). As to the method:
(§1) The antagonistic activities of the compounds of formula (I) on the EP2 and EP4 receptors are also determined in accordance with the following experimental method.
(§2) Human tumor cell lines expressing endogenously either EP4 or EP2 are used and cAMP accumulation in cells upon PGE2 stimulation is monitored. SF295 glioblastoma cells express high endogenous EP2 and no EP4, whereas BT549 breast cancer cells, express high endogenous EP4 levels and very low EP2 levels.
(§3) As a detection method for cAMP the HTRF (homogeneous time resolved fluorescence) Cisbio kit (HTRF cAMP dynamic 2 kit 20′000 tests Cisbio Cat. #62AM4PEC) was used, which is based on a competitive immunoassay using a Cryptate-labeled anti-cAMP antibody and d2-labeled cAMP. Native cAMP produced by cells or unlabeled cAMP (for the standard curve) compete with exogenously added d2-labeled cAMP (acceptor) for binding to monoclonal anti-cAMP-Eu3+Cryptate (donor). A FRET signal (Fluorescence Resonance Energy Transfer) is obtained only if the labeled anti-cAMP antibody binds the d2 labelled cAMP, thus the specific signal (i.e. energy transfer) is inversely proportional to the concentration of cAMP in the standard or sample.
The SF295 cells (NCI/No. 0503170) are detached from culture dishes with a cell dissociation buffer (Invitrogen, 13151-014), and collected in growing medium (GM: RPM11640 (Invitrogen 21875)/10% FCS, 1% Penicilin/streptomycin). Cells are counted washed and resuspended in assay buffer (AB; HBSS, 20 mM HEPES, 0.2% BSA; 2 mM IBMX). 4′000 cells in 5 μL of AB are seeded per well of a small volume 384 well plate (black with flat bottom, Greiner 784076).
(§4) Stock solutions of test compounds are made at a concentration of 10 mM in DMSO, and serially diluted in DMSO to concentrations required for inhibition dose response curves (tested concentration range 30 μM-0.4 nM; 30 μM-0.015 nM or 1 μM-0.01 nM).
PGE2 (Cayman 14010, stock solution: 75 μM in DMSO) is used as agonist at 75 nM final concentration, corresponding to EC80.
2.5 μL of diluted compounds are transferred into the assay plate. Plate is pre-incubated 45 minutes at room temperature. Subsequently, 2.5 μL of PGE2 (final conc. 75 nM) are transferred into the assay plate. Plate is incubated 30 minutes at room temperature. Five μL of each donor (anti-cAMP cryptate) and acceptor (cAMP-d2) are added and the plate is incubated another hour at room temperature in the dark and then read using a BMG LABTECH PHERAstar reader (Excitation: 337 nm, Emission: 620 and 665 nm).
(§5) The obtained Delta F (fluorescence) values (665 nm/620 nM) are converted into % cAMP values using the measurements of the cAMP calibrator provided in the kit. For each compound concentration the percentage of cAMP compared to DMSO control value as average ±STDEV (each concentration is measured in duplicate) is calculated.
(§6) IC50 values and curves are generated with XLfit software (IDBS) using Dose-Response One Site model 203. When compounds were measured multiple times, mean values are given.
(TR-FRET usually uses a lanthanide donor and a delayed reading to cut background.)

The target of a further test is T2, EP4 (Homo sapiens, UniProt P35408).
T2 construct: BT549 breast cancer cells, express high endogenous EP4 levels and very low EP2 levels; host or cells: BT549 breast cancer cells
The test can be described thus: hEP4 cAMP Assay (BT549 breast cancer cells, HTRF cAMP, PGE2 6 nM). Format: cell-based. To be noted: antagonistic activity, PGE2 6 nM (EC80). The method, then: as §1, §2, §3
The BT549 cells (NCI/No. 0507282) are detached from culture dishes with a cell dissociation buffer (Invitrogen, 13151-014), and collected in growing medium (GM: RPMI1640 (Invitrogen 21875)/10% FCS, 1% Penicilin/streptomycin). Cells are counted washed and resuspended in assay buffer (AB; HBSS, 20 mM HEPES, 0.2% BSA; 2 mM IBMX). 4′000 cells in 5 μL of AB are seeded per well of a small volume 384 well plate (black with flat bottom, Greiner 784076).
as §4
PGE2 (Cayman 14010, stock solution: 6 uM in DMSO) is used as agonist at 6 nM final concentration, corresponding to EC80.
2.5 μL of diluted compounds are transferred into the assay plate. Plate is pre-incubated 45 minutes at room temperature. Subsequently, 2.5 μL of PGE2 (final conc. 6 nM) are transferred into the assay plate. Plate is incubated 30 minutes at room temperature. 5 μL of each donor (anti-cAMP cryptate) and acceptor (cAMP-d2) are added and the plate is incubated another hour at room temperature in the dark and then read using a BMG LABTECH PHERAstar reader (Excitation: 337 nm, Emission: 620 and 665 nm).
as §5, §6

T2 sequence (P35408 whole entry): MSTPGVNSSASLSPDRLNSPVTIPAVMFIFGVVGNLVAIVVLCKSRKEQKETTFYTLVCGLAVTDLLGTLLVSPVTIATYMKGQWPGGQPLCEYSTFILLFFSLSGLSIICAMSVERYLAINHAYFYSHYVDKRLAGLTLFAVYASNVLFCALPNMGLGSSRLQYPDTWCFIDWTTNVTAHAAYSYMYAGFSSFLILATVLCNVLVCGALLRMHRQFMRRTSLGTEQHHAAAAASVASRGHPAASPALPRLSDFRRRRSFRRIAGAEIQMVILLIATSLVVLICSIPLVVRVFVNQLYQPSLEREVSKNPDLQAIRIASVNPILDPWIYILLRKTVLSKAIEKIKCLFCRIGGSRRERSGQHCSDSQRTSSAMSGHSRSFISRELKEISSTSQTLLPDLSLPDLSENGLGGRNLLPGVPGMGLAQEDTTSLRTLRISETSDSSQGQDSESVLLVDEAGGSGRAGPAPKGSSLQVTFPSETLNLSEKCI
T1 sequence (P43116 whole entry): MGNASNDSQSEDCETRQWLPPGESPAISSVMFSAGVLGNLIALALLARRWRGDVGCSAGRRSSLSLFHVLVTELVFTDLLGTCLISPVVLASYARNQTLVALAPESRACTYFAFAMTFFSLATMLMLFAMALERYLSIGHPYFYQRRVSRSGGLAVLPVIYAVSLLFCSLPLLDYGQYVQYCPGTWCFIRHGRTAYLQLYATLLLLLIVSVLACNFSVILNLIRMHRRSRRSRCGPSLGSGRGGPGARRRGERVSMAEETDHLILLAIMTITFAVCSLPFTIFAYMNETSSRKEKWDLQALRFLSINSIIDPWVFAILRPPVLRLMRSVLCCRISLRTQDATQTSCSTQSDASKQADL

For the compound “5-{6-[2-(6-Fluoro-2-methoxy-quinolin-8-yl)-ethylamino]-pyrimidin-4-yl}-3-trifluoromethyl-thiophene-2-carboxylic acid [Example 153]”, the IC50 (usually the midpoint of a concentration-inhibition curve) was 438 nM against EP2 and 283 nM on EP4.
Regarding `COc1ccc2cccc(CCNc3cc(-c4cc(C(F)(F)F)c(C(=O)O)s4)ncn3)c2n1` [Example 150, 5-{6-[2-(2-Methoxy-quinolin-8-yl)-ethylamino]-pyrimidin-4-yl}-3-trifluoromethyl-thiophene-2-carboxylic Acid], the results for the 50% inhibitory concentration (IC50) against EP2 and at EP4 were 524 nM and 321 nM, respectively.
Consider `COc1ccc2c(OC)cccc2c1CCNc1cc(-c2ccc(C(=O)O)c(OC3CCC3)c2)ncn1` [Example 52, 2-Cyclobutoxy-4-{6-[2-(2,5-dimethoxy-naphthalen-1-yl)-ethylamino]-pyrimidin-4-yl}-benzoic acid], for which the results for the IC50 against EP2 and on EP4 were 779 nM and 758 nM, respectively.
As for `CCOc1cc(-c2cc(NCCc3cccc4sccc34)ncn2)ccc1CC(=O)O` [Example 110, {4-[6-(2-Benzo[b]thiophen-4-yl-ethylamino)-pyrimidin-4-yl]-2-ethoxy-phenyl}-acetic acid], the IC50 against EP2 worked out at 878 nM; on EP4, 597 nM.
On the same counts, the results for `CCOc1cc(-c2cc(NCCc3cccc4cc(C)n(C)c34)ncn2)ccc1OCC(=O)O` [Example 57, (4-{6-[2-(1,2-Dimethyl-1H-indol-7-yl)-ethylamino]-pyrimidin-4-yl}-2-ethoxy-phenoxy)-acetic acid] are 508 nM and 962 nM.
In the case of `CCOc1cc(-c2cc(NCCc3c(OC)ccc4c(OC)cccc34)ncn2)ccc1OCC(=O)O` [Example 55, (4-{6-[2-(2,5-Dimethoxy-naphthalen-1-yl)-ethylamino]-pyrimidin-4-yl}-2-ethoxy-phenoxy)-acetic acid], the IC50 was found to be 829 nM at EP2 and 300 nM against EP4.
As to `CCOc1cc(-c2cc(NCCc3cc(OC)cc4ccccc34)ncn2)ccc1C(=O)O` [Example 40, 2-Ethoxy-4-{6-[2-(3-methoxy-naphthalen-1-yl)-ethylamino]-pyrimidin-4-yl}-benzoic acid], the figures for the IC50 against EP2 and on EP4 were 525 nM and 853 nM, respectively.
On the same counts, the results for `CCOc1cc(-c2cc(NCCc3c(OC)ccc4c(OC)cccc34)ncn2)ccc1C(=O)O` [Example 54, 4-{6-[2-(2,5-Dimethoxy-naphthalen-1-yl)-ethylamino]-pyrimidin-4-yl}-2-ethoxy-benzoic acid] are 878 nM and 420 nM.
On to `CCOc1cc(-c2cc(NCCc3c(C)ccc4c3cnn4C)ncn2)ccc1OCC(=O)O` [Example 80, (4-{6-[2-(1,5-Dimethyl-1H-indazol-4-yl)-ethylamino]-pyrimidin-4-yl}-2-ethoxy-phenoxy)-acetic acid], for which the half-inhibitory concentration (IC50) against EP2 amounted to 338 nM; against EP4 it was 495 nM.
For the compound `CCOc1cc(-c2cc(NCCc3cccc4ccn(C)c34)ncn2)ccc1OCC(=O)O` [Example 50, (2-Ethoxy-4-{6-[2-(1-methyl-1H-indol-7-yl)-ethylamino]-pyrimidin-4-yl}-phenoxy)-acetic acid], the IC50 on EP2 is 399 nM; on EP4, 631 nM.
On to `COc1cc(CCNc2cc(-c3ccc(C(=O)O)c(OC4CCC4)c3)ncn2)c2ccccc2c1` [Example 41, 2-Cyclobutoxy-4-{6-[2-(3-methoxy-naphthalen-1-yl)-ethylamino]-pyrimidin-4-yl}-benzoic acid], for which the IC50 on EP2 amounted to 297 nM; against EP4, 711 nM.
On the same counts, the results for `CCOc1cc(-c2cc(NCCc3cccc4sccc34)ncn2)ccc1C(=O)O` [Example 106, 4-[6-(2-Benzo[b]thiophen-4-yl-ethylamino)-pyrimidin-4-yl]-2-ethoxy-benzoic acid] are 258 nM and 867 nM.
Turning to `COc1ccc2c(c1CCNc1cc(-c3ccc(C(=O)O)c(OC4CCC4)c3)ncn1)OCO2` [Example 43, 2-Cyclobutoxy-4-{6-[2-(5-methoxy-benzo[1,3]dioxol-4-yl)-ethylamino]-pyrimidin-4-yl}-benzoic acid], the values for the IC50 on EP2 and at EP4 were 252 nM and 797 nM, respectively.
